Test results: PMC8802628, “Selective activation of PFKL suppresses the phagocytic oxidative burst” (Cell, 2021)

How the values were obtained:
[1] = tested on: PMNs; test: ROS detection assay (ROS-Glo) in neutrophils; assay type: cell-based, human; settings: over 2 h
Procedure: ROS were measured using the ROS-Glo bioluminescent assay (Promega) for the direct detection of H2O2. Briefly, neutrophils (2 × 10^4) were plated in white 96-well plates (Greiner) in high glucose DMEM medium. Cells were cultured with DMSO vehicle, 0.5 μM NA-11, 5 μM LDC7559, 100 μM apocynin, or 200 μM thionicotinamide for 30 min, and then stimulated with 50 nM PMA or treated with 10 μg/mL zymosan beads, pre-opsonized in 20% serum for 30 min. Luminescence, after the addition of H2O2 substrate solution of 20 min, and then ROS-Glo detection solution for 20 min, was recorded on a plate reader (Envision).

[2] = tested on: PMNs; test: Phagocytosis of zymosan particles by PMNs; assay type: cell-based, human; settings: neutrophils, zymosan 2 h
Procedure: Figure S7. NA-11 activates PFKL to prevent the oxidative burst and impair neutrophil defenses, related to Figures 4 and 6
(A) PFK1 activity in PMN lysates. Cells were pretreated with 0.5 mM NA-11, 5 mM LDC7559, 100 mM apocynin, 200 mM thionicotinamid e (TN), 1 mM MEK inhibitor U0126, or DMSO vehicle for 30 min, or 1 mM proteasome inhibitor bortezomib for 1 h, and then activated with 50 nM PMA for 30 min where indicated. Bars represent the mean ± s.d. of cells from 3 donors. (B) NADH:NAD+ ratio in PMA-activated PMNs. Cells were pretreated with 0.5 mM NA-11 or DMSO vehicle for 30 min, and then activated with 50 nM PMA for 30 min. Data are the mean ± s.d. of cells from 3 donors. (C) Immunolabeling of citrullinated histone H3 (magenta) and myeloperoxidase (red) in PMNs pretreated with 0.5 mM NA-11 or DMSO vehicle for 30 min and then stimulated for 4 h with 50 nM PMA, 10 mg/mL extracellular LPS, 0.5 mg/mL cholesterol crystals, or 25 mM nigericin. Chromatin is stained green. Scale bar, […]. Results are representative of 3 independent experiments.
(D) Fluorescence micrographs of PMNs pretreated with 0.5 mM NA-11, 200 mM thionicotinamide (TN), 0.5 mM NA-4, or DMSO vehicle for 30 min, and then incubated with serum-opsonized Texas Red-conjugated zymosan particles (10 mg/mL) for 2 h. […]

[3] = tested on: E. coli; test: Phagocytosis assay: E. coli C.F.U. recovered from PMNs; assay type: cell-based, human; settings: neutrophils pretreated 30 min
Procedure: Neutrophils (1 × 10^6) were cultured in 6-well tissue in RPMI medium containing DMSO vehicle, 0.5 μM NA-11, 0.5 μM NA-4, 100 μM Apocynin or 100 μM thionicotinamide (TN) for 30 min. E. coli grown in LB broth overnight (2 mL) were opsonized with human serum (1 mL pooled from three donors) for 1 h at room temperature. Opsonized bacteria were washed with PBS, resuspended in LB broth to an OD600of 0.1 and then added to cultured neutrophils at an MOI of 1 for 30 min. Cells were washed with medium three times and then cultured with 300 μg/mL gentamicin for 2 h to kill any extracellular bacteria. Cells were then washed again, twice with medium and once with PBS. To release phagocytosed bacteria, neutrophils were lysed in 0.05% saponin in PBS. Lysates were passed through a 25’ gauge needed several times and the number of viable phagocytosed bacteria was determined by colony counting.

[4] = substrate: O=C(CO)[C@@H](O)[C@H](O)[C@H](O)COP(=O)(O)O; test: Recombinant PFKL3Mut activity assay; assay type: biochemical, human; settings: other: PFKL3Mut, pH 7.5, 225 μM ATP, 25.0 °C
Source text: (§1) Recombinant N-terminal His-tagged human PFKL (NP_002617), PFKM (NP_000280), and PFKP (NM_002627.4) were generated as described ([Webb et al., 2015], [2017]). Point mutants of PFK1 were generated using the QuikChange Lightning kit (Aligent).
(§2) His-tagged PFK1 was expressed and purified as described with slight modifications ([Webb et al., 2015], [2017]). Briefly, baculovirus was generated using the Bac-to-Bac Expression system (Invitrogen). PFK1 was expressed in 2-5 × 10^6 sf9 cells at a multiplicity of infection of two for 48 h. […] Protein was quantified using a Bradford Protein Assay kit (ThermoFisher Scientific), and aliquotes frozen in liquid nitrogen for storage at −80°C.
(§3) PFK1 activity was determined using the rate of FBP production via an auxiliary enzyme assay adapted to a 96-well format ([Brüser et al., 2012]; [Webb et al., 2015]). […] For assays containing FBP, the rate of ADP production was determined using the auxiliary enzymes pyruvate kinase (PK) and lactate dehydrogenase (LDH) (MilliporeSigma) in a buffer containing 250 μM phosphoenolpyruvic acid, […] NADH, 50 mM HEPES pH 7.5, 100 mM KCl, 1 mM DTT, and effector concentrations as described in the text. […] Absorbance at 340 nm was measured using a Varioskan LUX Multimode microplate reader (ThermoFisher). […]

[5] = substrate: O=C(CO)[C@@H](O)[C@H](O)[C@H](O)COP(=O)(O)O; test: Recombinant PFKM activity assay; assay type: biochemical, human; settings: other: PFKM wild type, pH 7.0, 250 μM ATP, 25.0 °C
Source text: as §1, §2, §3

[6] = substrate: O=C(CO)[C@@H](O)[C@H](O)[C@H](O)COP(=O)(O)O; test: Recombinant PFKM+pocket activity assay; assay type: biochemical, human; settings: other: PFKM+pocket, pH 7.0, 250 μM ATP, 25.0 °C
Source text: as §1, §2, §3

Question: For `NC(=S)c1cccnc1` [TN, thionicotinamide, reference compound], which “ROS production during phagocytosis of opsonized zymosan” value [1] is on record?
Answer: kept ROS production at basal levels

Question: What about the “phagocytosis (intracellular zymosan particles)” value [2] of the same molecule?
Answer: neither NA-11 nor TN affected phagocytosis

Question: And the “killing of phagocytosed bacteria (bacterial colonies recovered)” value [3]?
Answer: less efficient killers of phagocytosed bacteria

B1: PFKL (K315R, V545L, and V582M), PFKL3Mut (Homo sapiens; K315R/V545L/V582M) (protein)
chain: MAAVDLEKLRASGAGKAIGVLTSGGDAQGMNAAVRAVTRMGIYVGAKVFLIYEGYEGLVEGGENIKQANWLSVSNIIQLGGTIIGSARCKAFTTREGRRAAAYNLVQHGITNLCVIGGDGSLTGANIFRSEWGSLLEELVAEGKISETTARTYSHLNIAGLVGSIDNDFCGTDMTIGTDSALHRIMEVIDAITTTAQSHQRTFVLEVMGRHCGYLALVSALASGADWLFIPEAPPEDGWENFMCERLGETRSRGSRLNIIIIAEGAIDRNGKPISSSYVKDLVVQRLGFDTRVTVLGHVQRGGTPSAFDRILSSRMGMEAVMALLEATPDTPACVVTLSGNQSVRLPLMECVQMTKEVQKAMDDKRFDEATQLRGGSFENNWNIYKLLAHQKPPKEKSNFSLAILNVGAPAAGMNAAVRSAVRTGISHGHTVYVVHDGFEGLAKGQVQEVGWHDVAGWLGRGGSMLGTKRTLPKGQLESIVENIRIYGIHALLVVGGFEAYEGVLQLVEARGRYEELCIVMCVIPATISNNVPGTDFSLGSDTALNAAMESCDRIKQSASGTKRRVFIVETMGGYCGYLATMTGIAVGADAAYVFEDPFNIHDLKVNVEHMTEKMKTDIQRGLVLRNEKCHDYYTTEFLYNLYSSEGKGVFDCRTNVLGHLQQGGAPTPFDRNYGTKLGVKAMLWLSEKLREVYRKGRVFANAPDSACVIGLKKKAVAFSPVTELKKDTDFEHRMPREQWWLSLRLMLKMLAQYRISMAAYVSGELEHVTRRTLSMDKGF
notes: made in house; host or cells: Sf9 insect cells (baculovirus)
Question: Which Km [4] does the source give for B1 here?
Answer: 570 ± 60 µM

B2: human PFKM (Homo sapiens) (protein)
chain: MTHEEHHAAKTLGIGKAIAVLTSGGDAQGMNAAVRAVVRVGIFTGARVFFVHEGYQGLVDGGDHIKEATWESVSMMLQLGGTVIGSARCKDFREREGRLRAAYNLVKRGITNLCVIGGDGSLTGADTFRSEWSDLLSDLQKAGKITDEEATKSSYLNIVGLVGSIDNDFCGTDMTIGTDSALHRIMEIVDAITTTAQSHQRTFVLEVMGRHCGYLALVTSLSCGADWVFIPECPPDDDWEEHLCRRLSETRTRGSRLNIIIVAEGAIDKNGKPITSEDIKNLVVKRLGYDTRVTVLGHVQRGGTPSAFDRILGSRMGVEAVMALLEGTPDTPACVVSLSGNQAVRLPLMECVQVTKDVTKAMDEKKFDEALKLRGRSFMNNWEVYKLLAHVRPPVSKSGSHTVAVMNVGAPAAGMNAAVRSTVRIGLIQGNRVLVVHDGFEGLAKGQIEEAGWSYVGGWTGQGGSKLGTKRTLPKKSFEQISANITKFNIQGLVIIGGFEAYTGGLELMEGRKQFDELCIPFVVIPATVSNNVPGSDFSVGADTALNTICTTCDRIKQSAAGTKRRVFIIETMGGYCGYLATMAGLAAGADAAYIFEEPFTIRDLQANVEHLVQKMKTTVKRGLVLRNEKCNENYTTDFIFNLYSEEGKGIFDSRKNVLGHMQQGGSPTPFDRNFATKMGAKAMNWMSGKIKESYRNGRIFANTPDSGCVLGMRKRALVFQPVAELKDQTDFEHRIPKEQWWLKLRPILKILAKYEIDLDTSDHAHLEHITRKRSGEAAV
notes: as for B1
Question: Which Km [5] does the source give for B2 here?
Answer: 610 ± 50 µM

B3: PFKM+pocket (R315 to lysine) (Homo sapiens; R315K) (protein)
chain: MTHEEHHAAKTLGIGKAIAVLTSGGDAQGMNAAVRAVVRVGIFTGARVFFVHEGYQGLVDGGDHIKEATWESVSMMLQLGGTVIGSARCKDFREREGRLRAAYNLVKRGITNLCVIGGDGSLTGADTFRSEWSDLLSDLQKAGKITDEEATKSSYLNIVGLVGSIDNDFCGTDMTIGTDSALHRIMEIVDAITTTAQSHQRTFVLEVMGRHCGYLALVTSLSCGADWVFIPECPPDDDWEEHLCRRLSETRTRGSRLNIIIVAEGAIDKNGKPITSEDIKNLVVKRLGYDTRVTVLGHVQRGGTPSAFDRILGSKMGVEAVMALLEGTPDTPACVVSLSGNQAVRLPLMECVQVTKDVTKAMDEKKFDEALKLRGRSFMNNWEVYKLLAHVRPPVSKSGSHTVAVMNVGAPAAGMNAAVRSTVRIGLIQGNRVLVVHDGFEGLAKGQIEEAGWSYVGGWTGQGGSKLGTKRTLPKKSFEQISANITKFNIQGLVIIGGFEAYTGGLELMEGRKQFDELCIPFVVIPATVSNNVPGSDFSVGADTALNTICTTCDRIKQSAAGTKRRVFIIETMGGYCGYLATMAGLAAGADAAYIFEEPFTIRDLQANVEHLVQKMKTTVKRGLVLRNEKCNENYTTDFIFNLYSEEGKGIFDSRKNVLGHMQQGGSPTPFDRNFATKMGAKAMNWMSGKIKESYRNGRIFANTPDSGCVLGMRKRALVFQPVAELKDQTDFEHRIPKEQWWLKLRPILKILAKYEIDLDTSDHAHLEHITRKRSGEAAV
notes: as for B1
Question: With B3 as the molecule, how does the Km [6] read?
Answer: 1410 ± 80 µM
